Experimental data reported in patent US12533313B2, “Inhalable liposomal sustained release composition for use in treating pulmonary diseases” (INSPIRMED CORP., priority 2018, dated 2026).
Values joined by “and” are separate entries in the source; they are usually repeats but may differ in a detail not shown here. Equal entries are not always repeated.

How the values were obtained:
[1] = Lung retention of nintedanib in an IPF animal model; type: in vivo; conditions: fibrotic mice, once-daily oral dosing of 60 mg/kg
Method: First, pulmonary fibrosis was induced by IT instillation of 2.5 mg/kg bleomycin to each mouse. […] Q2D×2 signifies one dose administered every other day for a total of two doses. Blood and lung tissue samples were collected at predetermined time points (Table 7).

[2] = system: bleomycin-induced pulmonary fibrosis in mice; test: Efficacy of liposomal and oral nintedanib in an IPF animal model, histopathological evaluation of lung tissue; type: in vivo; conditions: 60 mg/kg, oral, QD ×10, Day 21, listed as free nintedanib
Method: Q2D×4 signifies one dose administered every other day on day 7, 9, 15, and 17. QD×10 signifies mice received once daily dosing on day 7, 8, 9, 10, 11, 14, 15, 16, 17, and 18. Blood and lung tissue samples were collected on day 21.
Efficacy was determined by histopathological evaluation of mouse lung tissue.
Degree of lesions stained with HE was graded from one to five depending on severity: […]

[3] = system: C57BL/6 mice; test: Observations of mice (mortality) during lung retention study; type: in vivo; conditions: healthy mice, IT 50 μL, 3.74 mg/mL nintedanib
Method: (§1) A lung retention study of liposomal TKI in healthy mice was conducted to compare the residence times of free form versus liposomal TKI formulations in the mouse lung.

[4] = Lung retention study of liposomal TKI in healthy mice; type: in vivo; conditions: IT, 3.74 mg/mL, after two hours
Method: as §1

[5] = system: IPF; conditions: cited from earlier work

COC(=O)c1ccc2c(c1)NC(=O)/C2=C(\Nc1ccc(N(C)C(=O)CN2CCN(C)CC2)cc1)c1ccccc1 [nintedanib]
Drug retention in mouse lung [1]: no nintedanib was detected in lung tissue after just a few hours | Mean score (fibrosis) ([2]; per animal (No. 4 to 6)): ~2 and 2.0 and 1.4 | Interstitial and subpleural, multifocal fibrosis scores ([2]; single scores per animal (No. 4 to 6)): 2 (2=slight (1-25%)) (12×) and 1 (1=minimal (<1%)) (3×) | Observation of surviving mice [3]: mice were very weak) | Mortality ([3]; deaths/mice): 2/9 (the 7 surviving | Drug retained in the lung [4]: almost none of the drug was retained in the lung | Undesired side effects of oral treatment ([5]; current therapeutic amount): diarrhea (most frequent adverse event), nausea, stomach pain, liver problems, vomiting, decreased appetite, headache, weight loss, and high blood pressure | Reduction of lung function decline (increased forced vital capacity) compared to placebo ([5]; oral, 150 mg twice a day, clinical trials): approximately 50%
